One test deals with recombinant human p38α (Homo sapiens, UniProt Q16539). The test can be described thus: Purified and activated recombinant human p38α HTRF assay. The class given is biochemical. The following applies: 1 nM p38α, 50 μM ATP, GST-ATF2 substrate, read-out: p38a IC50. The method, then: Purified and Activated Recombinant Human p38α Assay Kinase Reaction Buffer: […] HTRF Detection Buffer: […] Serial Dilution of Compounds: […] Columns 6 and 12 (HI controls and LO controls respectively) in the drug plate were reserved as controls and contained only DMSO. Kinase Reaction: […] See table below for actual concentrations. In the absence of substrate, the background was measured as LO control. […] Assay Reagent Concentrations: […] HTRF Detection: […] After 60 minutes incubation at room temperature, the assay plate was read in a Discovery Plate Reader. The wells were excited with coherent 320 nm light and the ratio of delayed ([…] post excitation) emissions at […] (native europium fluorescence) and 665 nm (europium fluorescence transferred to allophycocyanin-an index of substrate phosphorylation) was determined (Park et al, 1999). Data Analysis: […] Data (consisting of POC and inhibitor concentration in μM) was fitted to a 4-parameter equation ([…]))), where A is the minimum y (POC) value, B is the maximum y (POC), C is the x (compound concentration) at the point of inflection and D is the slope factor, using a Levenburg-Marquardt non-linear regression algorithm. The inhibition constant (Ki) of the inhibitor was estimated from the IC50 (compound concentration at the point of inflection C) using the Cheng-Prussof equation: […] All results were expressed as the mean±the standard error of the mean. Data acquisition and non-linear regression algorithms were performed using Activity Base v5.2 and XL-fit software v4.1 respectively. All data was archived using Activity Base v5.2 software.
recombinant human p38α, sequence (Q16539 whole entry): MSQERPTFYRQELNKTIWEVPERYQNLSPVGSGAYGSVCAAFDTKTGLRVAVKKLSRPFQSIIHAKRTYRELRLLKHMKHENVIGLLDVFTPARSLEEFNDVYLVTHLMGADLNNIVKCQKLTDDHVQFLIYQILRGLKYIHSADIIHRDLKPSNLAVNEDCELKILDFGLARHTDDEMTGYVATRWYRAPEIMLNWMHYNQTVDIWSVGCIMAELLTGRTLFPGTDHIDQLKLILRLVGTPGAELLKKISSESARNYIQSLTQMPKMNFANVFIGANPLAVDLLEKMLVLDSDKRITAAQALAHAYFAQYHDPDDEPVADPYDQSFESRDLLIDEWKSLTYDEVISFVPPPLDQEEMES

Test [1] concerns production of IL-1β, IL-6, and TNF-α by PBMC activated with LPS. The test can be described thus: Lipopolysaccharide-activated PBMC cytokine production assay. It is filed as cell-based. The following applies: Homo sapiens, read-out: IC50 in PBMC cytokine production assay. Here is the method: Lipopolysaccharide-Activated Pbmc Cytokine Production Assay
Test compounds were evaluated in vitro for the ability to inhibit the production of IL-1β, IL-6, and TNF-α by PBMC activated with bacterial lipopolysaccharide (LPS). Fresh leukocytes were obtained from a local blood bank, and peripheral blood mononuclear cells (PBMCs) were isolated by density gradient centrifugation on Ficol-Paque Plus (Pharmacia).
Preparation of Test Compound Stock Solutions
All reagents were prepared in RPMI 1640+10% v/v human AB serum+1× Pens/Strep/Glu (assay medium). Test compounds were dissolved in 100% DMSO and serially diluted in 96-well polypropylene round bottom micro titer plates (drug plate). Serial dilutions were then diluted 1:250 into assay medium to a 4× working concentration. Compound serial dilutions were half-log, 10 point titrations with a final starting concentration of 1 μM.
Treatment of Cells with Test Compounds and Activation with Lipopolysaccharide
LPS was prepared to a 4× concentration in assay medium. 100 μl of PBMC (1×10^6 cells/ml) were plated in a 96-well polystyrene flat bottom micro titer tissue culture plate and incubated with 50 μl of 4× compound serial dilution for 1 hour at 37° C., 5% CO2 in a tissue culture incubator. 50 μl 4×LPS or control was added and the plates were incubated at 37° C., 5% CO2 in a tissue culture incubator for 18 hours. The final DMSO concentration was 0.1%. The total volume was 200 μL. The final LPS concentration was 100 ng/mL. After 18 hours culture supernatants were removed and IL-1β, IL-6, and TNF-α presence in the supernatants was quantified using MSD ECL based technology.
20 μL of culture supernatant were added to MSD plates, and incubated for one hour at room temperature. 20 μL of detection antibody diluted in antibody diluent (1 μg/mL), and 110 μL of 2× Read Buffer P was added, and incubated for one hour at RT. Electrochemiluminescence was measured using the SECTOR HTS Imager (MSD, Gaithersburg, Md.).
Compound IC50 values were calculated as follows: The proportion of cytokine production in the presence of compound compared to the cytokine production in the presence of the DMSO vehicle alone (Hi control) was calculated using the formula: Percent Control (POC)=(compound−average Lo)/(average Hi−average Lo)*100.

The test system of test [2] is TNF-α production by LPS-activated THP1 cells. The test can be described thus: Lipopolysaccharide-activated THP1 cell TNF production assay. It is filed as cell-based. The following applies: Homo sapiens, read-out: IC50 in THP-1 cellular TNF production assay. Here is the method:
Lipopolysaccharide-Activated THP1 Cell TNF Production Assay
THP1 cells were resuspended in fresh THP1 media (RPMI 1640, 10% heat-inactivated FBS, 1×PGS, 1×NEAA, plus 30 μM βME) at a concentration of 1.5×10^6 cells per mL. One hundred microliters of cells per well were plated in a polystyrene 96-well tissue culture plate. 1.5 micrograms per mL of bacterial LPS was prepared in THP1 media and transferred to the first 11 columns of a 96-well polypropylene plate. Column 12 contained only THP1 media for the LO control. Compounds were dissolved in 100% DMSO and serially diluted 3 fold in a polypropylene 96-well microtiter plate (drug plate). Columns 6 and 12 were reserved as controls (HI controls and LO controls respectively) and contained only DMSO. 10 μL of LPS followed by one microliter of inhibitor compound from the drug plate was transferred to the cell plate. The treated cells were induced to synthesize and secrete TNF-α in a 37° C. humidified incubator with 5% CO2 for 3 hours. Fifty microliters of conditioned media was transferred to a 96-well MULTI-ARRAY™ 96-well small spot plate—custom coated with MAB610 containing 100 μL of 2× Read Buffer P supplemented with 0.34 nM AF210NA polyclonal Ab labeled with ruthenium (MSD—Sulfo-TAG™—NHS ester). After an overnight incubation at room temperature with shaking, the reaction was read on the Sector Imager™ 6000. […] The amount of secreted TNF-α in the presence of test compounds compared with that in the presence of DMSO vehicle alone (HI control) was calculated using the formula: % control (POC)=(cpd−average LO)/(average HI−averageLO)*100. Data (consisting of POC and inhibitor concentration in μM) was fitted to a 4-parameter equation (y=A+((B−A)/(1+((x/C)^D))), where A is the minimum y (POC) value, B is the maximum y (POC), C is the x (cpd concentration) at the point of inflection and D is the slope factor) using a Levenburg-Marquardt non-linear regression algorithm.

For test [3], the system named is LPS-induced TNF-α production. The test can be described thus: Inhibition of LPS-induced TNF-α production in rats. The class given is in vivo. The following applies: Rattus norvegicus, read-out: ED50, inhibition of LPS-induced TNF-α production. Here is the method: Inhibition of LPS-Induced TNF-α Production Rats
LPS was diluted in PBS (100 μg per rat). Rats (n=6) were pretreated with vehicle or compound (0.03, 0.1, 0.3 and 1.0 mg/kg, PO) 60 minutes prior to the injection of LPS (100 μg per rat/IV, tail vein). Blood was harvested via decapitation 90 minutes following the administration of LPS. Blood was centrifuged at 12,000 rpm for 12 minutes to obtain plasma. Plasma samples were stored at −80 C. TNF-α levels were determined by ELISA for treatment groups that received LPS. Rat TNF-α levels were analyzed using rat TNF-α CytoSet kit from Biosource International. ELISA was completed according to the manufacturer's instructions. The concentration of TNF-α was interpolated from absorbance using the standard curve generated. For each individual sample, the TNF value from the dilution series that fell in the most linear portion of the standard curve was chosen and used for data analysis. The limit of quantitation of the ELISA was 1,000 pg/mL.

Test [4] has as its system collagen-induced arthritis. The test can be described thus: Collagen-induced arthritis (CIA) model in rats. It is filed as in vivo. The following applies: Rattus norvegicus, 168 h, read-out: ED50 in rat CIA model. The method, then:
Collagen-induced Arthritis (CIA) Model in Rats
Porcine type II collagen (10 mg) was dissolved in 0.1N acetic acid (5 mL) two days prior to use on a rotating plate in the refrigerator. Subsequently, collagen was emulsified 1:1 with Freund's incomplete adjuvant using an emulsification needle and glass syringes yielding a final concentration of 1 mg/mL.
Disease was induced in each animal by intradermal injection of emulsified collagen in IFA at 10 different sites (100 μL per site) over the back. The clinical onset of arthritis varied between days 10 to 12 as indicated by hind paw swelling and ambulatory difficulties. At onset (defined as Day 0), rats were randomized to treatment groups and therapy was initiated with drug or vehicle control as noted in table above. Rats were treated for 7 days and were sacrificed on Day 8.

The test system of test [5] is TNF-α induced IL-8 in 50% human whole blood. The test can be described thus: Inhibition of TNF-α induced IL-8 in 50% human whole blood. To be noted: TNF-α (1 nM) induced IL-8, 50% human whole blood, 16-18 h, read-out: WB TNF/IL8 IC50. It is filed as cell-based. Here is the method:
Inhibition of TNF-α Induced IL-8 in 50% Human Whole Blood
Test compounds were evaluated in vitro for the ability to inhibit the production of secreted IL-8 by whole blood activated with TNF-α. Fresh human whole blood was obtained from healthy, non-medicated volunteers in sodium heparin tubes.
Compound Dilution—Assay Procedure
Test compounds are serially diluted 1:3 in DMSO and then diluted 1:250 into R10 (RPMI 1640, 10% human serum AB, 1× pen/strep/glutamine) to the 4× working concentration to be used in the assay. 100 ul heparinized whole blood is plated into wells of 96 well flat bottom plates. 50 ul of either 4× compound or DMSO control (Final DMSO concentration is 0.1%) are added to the appropriate wells. Plates are incubated for 1 hour at 37 degrees Celsius. 50 ul of 4×TNF-α (4 nM TNF-α, for a final concentration of 1 nM) or control (media alone) is added to the appropriate wells (Total volume=200 ul). Plates are incubated overnight (16-18 hours). 100 ul of supernatant is collected and stored in 96-well round bottom polypropylene plates at −80 degrees Celsius or assayed immediately for IL-8.
Cytokines are measured on antibody (Ab) sandwich ECL based 96-well detection plates. 20 ul of supernatant are added to plate and plate is sealed and shaken at RT for 1 hour. 130 ul of detection Ab cocktail is added and plates are sealed and shaken for 1 hour in the dark at RT. Plates are read on MSD Sector HTS instrument. Data are analyzed and IC50 values generated using Activity Base and X1-fit programs.

Where [6] appears, read: THP-1, THP1 cells, LPS, 3 hours.

For orientation: ED50 means the dose at which the effect has come halfway, by size or by number of responders.

Where two headings read alike, the source gives them in different places. Some results are limits rather than exact numbers.

On to `Cc1ccc(C(=O)NC2CC2)cc1-c1cc2cnnc(-c3ccc(F)cc3F)c2n(C)c1=O` [Example 1, N-cyclopropyl-3-(8-(2,4-difluorophenyl)-1-methyl-2-oxo-1,2-dihydropyrido[3,2-d]pyridazin-3-yl)-4-methylbenzamide], for which the IC50 is 2.3 nM at recombinant human p38α; at most 1000 nM in test [1] (18 h); at most 1000 nM in test [2] (THP-1, 3 h). Also, the ED50 in test [3] amounted to 0.06 mg/kg; in test [4], 0.03 mg/kg.
As for `Cc1c(F)cc(C(=O)NC2CC2)cc1-c1cc2cnnc(-c3ccc(F)cc3F)c2n(C)c1=O` [Example 3, N-cyclopropyl-3-(8-(2,4-difluorophenyl)-1-methyl-2-oxo-1,2-dihydropyrido[3,2-d]pyridazin-3-yl)-5-fluoro-4-methylbenzamide], the IC50 was 1.7 nM at recombinant human p38α; at most 1000 nM in test [1] (18 h); at most 1000 nM in test [2] (THP-1, 3 h). Further, the ED50 in test [3] was 0.04 mg/kg.
As for `Cc1ccc(C(=O)Nc2ccnn2C)cc1-c1cc2cnnc(-c3ccc(F)cc3F)c2n(C)c1=O` [Example 15, 3-(8-(2,4-difluorophenyl)-1-methyl-2-oxo-1,2-dihydropyrido[2,3-d]pyridazin-3-yl)-4-methyl-N-(1-methyl-1H-pyrazol-5-yl)benzamide], the IC50 on recombinant human p38α is 7.5 nM; in test [5], 4.1 nM; in test [1] (LPS 100 ng/mL, 18 hours) it was at most 1000 nM; in test [2] (setting [6]), at most 1000 nM.
As to `Cc1ccc(C(=O)NC2CC2)cc1-c1cc2cnnc(-c3cc(F)ccc3Cl)c2n(C)c1=O` [Example 18, 3-(8-(2-chloro-5-fluorophenyl)-1-methyl-2-oxo-1,2-dihydropyrido[2,3-d]pyridazin-3-yl)-N-cyclopropyl-4-methylbenzamide], the IC50 on recombinant human p38α was 1.7 nM; in test [5], 2.2 nM; in test [1] (LPS 100 ng/mL, 18 hours), at most 1000 nM; in test [2] (setting [6]), at most 1000 nM.
Take `Cc1ccc(C(=O)NC2(C)CC2)cc1-c1cc2cnnc(-c3ccc(F)cc3Cl)c2n(C)c1=O` [Example 20, 3-(8-(2-chloro-4-fluorophenyl)-1-methyl-2-oxo-1,2-dihydropyrido[2,3-d]pyridazin-3-yl)-4-methyl-N-(1-methylcyclopropyl)benzamide]: the IC50 was 4.1 nM on recombinant human p38α; 15.6 nM in test [5]; at most 1000 nM in test [1] (LPS 100 ng/mL, 18 hours); at most 1000 nM in test [2] (setting [6]).
For the molecule `Cc1ccc(C(=O)Nc2nccs2)cc1-c1cc2cnnc(-c3ccc(F)cc3Cl)c2n(C)c1=O` [Example 24, 3-(8-(2-chloro-4-fluorophenyl)-1-methyl-2-oxo-1,2-dihydropyrido[2,3-d]pyridazin-3-yl)-4-methyl-N-1,3-thiazol-2-ylbenzamide], the IC50 on recombinant human p38α was 1 nM; in test [5], 9.3 nM; in test [1] (LPS 100 ng/mL, 18 hours), at most 1000 nM; in test [2] (setting [6]) it was at most 1000 nM.
